Data taken from ChEMBL document CHEMBL1201862, “PubChem BioAssay data set” (2004).
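Briefly, cells in 96-well plates were exposed to five compound concentrations for 48 h, and endpoints were estimated by linear interpolation. GI50 = concentration required for 50% inhibition of growth.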 Calls of active or inactive are those of the source. Cut-off read from the data, not from the text of the source: active = GI50 up to about 1.1 µM and inactive = higher.

How the values were obtained:
Experiment in all cases: NCI anticancer screen, dose series, 48 h
SNB-19 = system: SNB-19
U-251 = system: U-251
NCI-H460 = system: NCI-H460
SF-268 = system: SF-268
PC-3 = system: PC-3
SF-295 = system: SF-295
MDA-MB-435 = system: MDA-MB-435
KM12 = system: KM12
COLO 205 = system: COLO 205
Hs-578T = system: Hs-578T
CAKI-1 = system: CAKI-1
A498 = system: A498
SF-539 = system: SF-539
HCT-116 = system: HCT-116
NCI/ADR-RES = system: NCI/ADR-RES
T47D = system: T47D
A549 = system: A549
SN12C = system: SN12C
NCI-H522 = system: NCI-H522
OVCAR-3 = system: OVCAR-3

Measured: GI50

CC(=O)Nc1ccc(-c2nc3ccccc3s2)cc1C
inactive: SNB-19 36.9 µM | U-251 71.6 µM | NCI-H460 78.2 µM | SF-268 64.4 µM | PC-3 29 µM | SF-295 40 µM | MDA-MB-435 > 100 µM | KM12 51.2 µM | COLO 205 45 µM | Hs-578T 45.4 µM | CAKI-1 18.2 µM | A498 2.9 µM | SF-539 50.8 µM | HCT-116 78.7 µM | NCI/ADR-RES 42.2 µM | T47D 12.2 µM

CC1=NN(c2nc(N)nc(COc3ccc(N)cc3)n2)C(C)(C)C1
inactive: SNB-19 > 100 µM | U-251 > 100 µM | NCI-H460 > 100 µM | SF-268 > 100 µM | PC-3 > 100 µM | SF-295 > 100 µM | MDA-MB-435 > 100 µM | KM12 > 100 µM | COLO 205 > 100 µM | Hs-578T > 100 µM | CAKI-1 > 100 µM | A498 > 100 µM | SF-539 > 100 µM | HCT-116 > 100 µM | NCI/ADR-RES > 100 µM | T47D > 100 µM

CC1=C(C(=O)OCCc2ccc([N+](=O)[O-])cc2)C(c2ccccc2C(F)(F)F)C(C(=O)OC(C)C)=C(C)N1 (stereo unspecified)
inactive: SNB-19 4.85 µM | A549 2.81 µM | U-251 3.52 µM | NCI-H460 2.47 µM | SF-268 3.53 µM | SN12C 3.12 µM | PC-3 1.98 µM | SF-295 2.68 µM | MDA-MB-435 3.84 µM | KM12 2.88 µM | COLO 205 2.97 µM | NCI-H522 3.31 µM | Hs-578T 2.12 µM | CAKI-1 2.9 µM | SF-539 3.82 µM | HCT-116 2.92 µM | NCI/ADR-RES 2.75 µM | OVCAR-3 3.48 µM | T47D 3.12 µM

CN1C(=O)C(c2c[nH]c3ccccc23)N(C)C(=O)C1c1c[nH]c2ccccc12 (stereo unspecified)
inactive: SNB-19 > 10 µM | A549 > 100 µM | U-251 > 100 µM | NCI-H460 > 100 µM | SF-268 86.3 µM | SN12C > 100 µM | PC-3 > 100 µM | SF-295 > 100 µM | MDA-MB-435 > 100 µM | KM12 > 100 µM | COLO 205 > 100 µM | NCI-H522 > 100 µM | Hs-578T 62.1 µM | CAKI-1 > 100 µM | SF-539 86.5 µM | HCT-116 > 100 µM | NCI/ADR-RES > 100 µM | OVCAR-3 > 100 µM | T47D > 100 µM

COc1cc(C(SCc2ccccc2)SCc2ccccc2)ccc1O
inactive: SNB-19 > 10 µM | U-251 > 10 µM | NCI-H460 > 10 µM | SF-268 > 10 µM | SN12C > 10 µM | PC-3 > 10 µM | SF-295 > 10 µM | KM12 > 10 µM | COLO 205 > 10 µM | NCI-H522 > 10 µM | Hs-578T 6.12 µM | CAKI-1 > 10 µM | A498 > 10 µM | SF-539 > 10 µM | HCT-116 7.41 µM | NCI/ADR-RES > 10 µM | OVCAR-3 > 10 µM | T47D 8.97 µM

C/C(=C\C(=O)O)C(=O)N(C)c1ccccc1I
inactive: SNB-19 > 100 µM | A549 > 100 µM | U-251 > 100 µM | NCI-H460 > 100 µM | SF-268 > 100 µM | SN12C > 100 µM | PC-3 > 100 µM | SF-295 > 100 µM | MDA-MB-435 > 100 µM | KM12 > 100 µM | COLO 205 > 100 µM | Hs-578T > 100 µM | CAKI-1 > 100 µM | A498 > 100 µM | HCT-116 > 100 µM | NCI/ADR-RES > 100 µM | OVCAR-3 > 100 µM | T47D > 100 µM

CCN(CC)C(=C(C(Cl)=C(Cl)Cl)[N+](=O)[O-])N(CC)CC
inactive: SNB-19 29.6 µM | A549 > 100 µM | U-251 > 100 µM | NCI-H460 55 µM | SF-268 41 µM | SN12C 93.5 µM | PC-3 > 100 µM | SF-295 > 100 µM | KM12 > 100 µM | COLO 205 > 100 µM | Hs-578T 24.7 µM | CAKI-1 34.8 µM | A498 > 100 µM | SF-539 > 100 µM | HCT-116 87.7 µM | NCI/ADR-RES 54 µM | OVCAR-3 37.5 µM | T47D 61.8 µM

Oc1c(Cl)c(Cl)c(O)c(CCNc2ccc3ncccc3c2)c1Cl
inactive: SNB-19 13.3 µM | A549 17.2 µM | U-251 8.87 µM | NCI-H460 18.9 µM | SF-268 5.13 µM | SN12C 13.9 µM | PC-3 28 µM | SF-295 11.4 µM | MDA-MB-435 5.2 µM | KM12 3.91 µM | COLO 205 6.55 µM | NCI-H522 2.17 µM | Hs-578T 5.04 µM | CAKI-1 12.6 µM | SF-539 12.5 µM | HCT-116 14.5 µM | NCI/ADR-RES 12.2 µM | OVCAR-3 15.5 µM | T47D 11 µM

CSc1ncc2c(C#N)c3n(C)c4ccccc4n3c(=O)c2n1
inactive: SNB-19 > 100 µM | A549 > 100 µM | U-251 > 100 µM | NCI-H460 > 100 µM | SF-268 > 100 µM | SN12C > 100 µM | PC-3 > 100 µM | SF-295 > 100 µM | MDA-MB-435 > 100 µM | KM12 > 100 µM | COLO 205 > 100 µM | Hs-578T > 100 µM | CAKI-1 > 100 µM | A498 > 100 µM | SF-539 > 100 µM | HCT-116 > 100 µM | NCI/ADR-RES > 100 µM | OVCAR-3 > 100 µM | T47D > 100 µM

CC(C)/C(Cl)=N\OC(=O)Nc1ccc(F)c([N+](=O)[O-])c1
inactive: SNB-19 16.7 µM | A549 23.9 µM | U-251 16.4 µM | NCI-H460 2.41 µM | SF-268 14.3 µM | SN12C 5.83 µM | PC-3 18.1 µM | SF-295 19.1 µM | MDA-MB-435 12.3 µM | KM12 14.6 µM | COLO 205 2.03 µM | Hs-578T 12.1 µM | CAKI-1 1.81 µM | A498 19.2 µM | SF-539 3 µM | HCT-116 3.08 µM | NCI/ADR-RES 18.4 µM | OVCAR-3 14.2 µM
active: NCI-H522 0.792 µM

N#CCOc1cccc(C2(N3CC=CCC3)CCCCC2)c1
inactive: SNB-19 > 100 µM | A549 > 100 µM | U-251 > 100 µM | SF-268 > 100 µM | SN12C > 100 µM | PC-3 > 100 µM | SF-295 > 100 µM | MDA-MB-435 > 100 µM | KM12 > 100 µM | COLO 205 > 100 µM | NCI-H522 57.8 µM | Hs-578T > 100 µM | CAKI-1 > 100 µM | A498 > 100 µM | SF-539 > 100 µM | HCT-116 > 100 µM | NCI/ADR-RES > 100 µM | OVCAR-3 > 100 µM | T47D > 100 µM

CC1=NN(c2cccc(Cl)c2)C2(SCC(=O)N2c2nc3ccccc3s2)/C1=C\c1ccccc1 (stereo unspecified)
inactive: U-251 19.7 µM | NCI-H460 15.3 µM | SF-268 21.4 µM | PC-3 23.6 µM | SF-295 21.6 µM | MDA-MB-435 18.3 µM | KM12 16.1 µM | NCI-H522 14.6 µM | Hs-578T 18.4 µM | CAKI-1 20 µM | A498 23.2 µM | SF-539 26.4 µM | HCT-116 15.9 µM | NCI/ADR-RES 24.9 µM | OVCAR-3 20.8 µM | T47D 27.1 µM

O=S(=O)(O)/C(=N\c1cccc(Cc2ccccc2)c1)Nc1cccc(Cc2ccccc2)c1
inactive: SNB-19 21.2 µM | A549 22.4 µM | U-251 19.6 µM | SF-268 17.7 µM | SN12C 19.5 µM | PC-3 18.3 µM | SF-295 18.2 µM | MDA-MB-435 20.1 µM | KM12 17.3 µM | COLO 205 18.3 µM | NCI-H522 14.9 µM | Hs-578T 19.1 µM | CAKI-1 42.5 µM | A498 22.4 µM | SF-539 16.3 µM | HCT-116 14.9 µM | NCI/ADR-RES 18.2 µM | T47D 15.8 µM

CN(C)c1ccc2c(SCC(=O)OCC(=O)[C@@]3(O)CC[C@H]4[C@@H]5CCC6=CC(=O)C=C[C@]6(C)[C@H]5C(=O)C[C@@]43C)c3ccc(N(C)C)cc3nc2c1
inactive: SNB-19 23.7 µM | A549 15.2 µM | U-251 15 µM | NCI-H460 3.24 µM | SF-268 5.82 µM | SN12C 7.01 µM | PC-3 20.8 µM | SF-295 14 µM | MDA-MB-435 17 µM | KM12 6.5 µM | COLO 205 5.79 µM | NCI-H522 21.8 µM | Hs-578T > 100 µM | CAKI-1 23.6 µM | A498 > 54.3 µM | SF-539 6.19 µM | HCT-116 2.82 µM | OVCAR-3 5.24 µM | T47D 17.4 µM

O=c1[nH]cc(F)c(=O)[nH]1 [FLUOROURACIL]
inactive: SNB-19 116 µM | A549 2.11 µM | U-251 44.3 µM | SF-268 51.4 µM | SN12C 24.9 µM | PC-3 50.6 µM | SF-295 51.9 µM | MDA-MB-435 10.6 µM | KM12 9.51 µM | NCI-H522 37 µM | Hs-578T 225 µM | CAKI-1 4.45 µM | A498 10.2 µM | SF-539 1.33 µM | NCI/ADR-RES 41.3 µM | OVCAR-3 27.3 µM | T47D 75.5 µM
active: NCI-H460 1.05 µM
